Reference: ChEMBL document CHEMBL5385873, “Analogues of natural products yaequinolones as potential inflammatory inhibitors: Design, synthesis and biological evaluation” (Eur J Med Chem, 2023)
The source made the active and inactive calls. The rule behind the calls is not given here.

What was measured:
Type in all cases: functional, cell-based
RAW264.7 [1] = assay: Cytotoxicity against mouse RAW264.7 cells assessed as reduction in cell viability at <50 uM incubated for 24 hrs by MTT assay
RAW264.7 [2] = assay: Antiinflammatory activity in mouse RAW264.7 cells assessed as inhibition of LPS-induced NO production at 0.1 uM incubated for 24 hrs
RAW264.7 [3] = assay: Antiinflammatory activity in mouse RAW264.7 cells assessed as inhibition of LPS-induced TNF-alpha expression at 0.1 uM measured after 24 hrs by ELISA method
RAW264.7 [4] = assay: Antiinflammatory activity in mouse RAW264.7 cells assessed as reduction in LPS-induced IL-6 level at 0.05 uM measured after 24 hrs by ELISA method
RAW264.7 [5] = assay: Antiinflammatory activity in mouse RAW264.7 cells assessed as inhibition of LPS-induced NO production at 0.05 uM incubated for 24 hrs
RAW264.7 [6] = assay: Antiinflammatory activity in mouse RAW264.7 cells assessed as inhibition of LPS-induced NO production at 1 uM incubated for 24 hrs
RAW264.7 [7] = assay: Antiinflammatory activity in mouse RAW264.7 cells assessed as inhibition of LPS-induced NO production at 2 uM incubated for 24 hrs
RAW264.7 [8] = assay: Cytotoxicity against mouse RAW264.7 cells assessed as reduction in cell viability at 2 to 10 uM incubated for 24 hrs by MTT assay; details: dose 2-10 µM
RAW264.7 [9] = assay: Cytotoxicity against mouse RAW264.7 cells assessed as reduction in cell viability at 10 uM incubated for 24 hrs by MTT assay
RAW264.7 [10] = assay: Antiinflammatory activity in mouse RAW264.7 cells assessed as inhibition of LPS-induced TNF-alpha expression at 0.2 uM measured after 24 hrs by ELISA method
RAW264.7 [11] = assay: Antiinflammatory activity in mouse RAW264.7 cells assessed as reduction in LPS-induced IL-6 level at 0.2 uM measured after 24 hrs by ELISA method
RAW264.7 [12] = assay: Antiinflammatory activity in mouse RAW264.7 cells assessed as inhibition of LPS-induced NO production at 0.2 uM incubated for 24 hrs

## CO[C@@H]1C(=O)Nc2ccc3c(c2[C@@]1(O)c1ccccc1)O[C@@](C)(CCC=C(C)C)C=C3
RAW264.7 [1]
  Activity: inactive

## CO[C@@H]1C(=O)Nc2ccc3c(c2[C@@]1(O)c1ccccc1)O[C@](C)(CCC=C(C)C)C=C3
RAW264.7 [2]
  Activity: Active
RAW264.7 [3]
  Activity: inactive
RAW264.7 [4]
  Activity: Active
RAW264.7 [5]
  Activity: inactive
RAW264.7 [6]
  Activity: Active
RAW264.7 [1]
  Activity: inactive

## CO[C@H]1C(=O)Nc2ccc3c(c2[C@]1(O)c1ccccc1)O[C@@](C)(CCC=C(C)C)C=C3
RAW264.7 [1]
  Activity: inactive

## CO[C@H]1C(=O)Nc2ccc3c(c2[C@]1(O)c1ccccc1)O[C@](C)(CCC=C(C)C)C=C3
RAW264.7 [2]
  Activity: Active
RAW264.7 [3]
  Activity: inactive
RAW264.7 [4]
  Activity: Active
RAW264.7 [5]
  Activity: inactive
RAW264.7 [6]
  Activity: Active
RAW264.7 [1]
  Activity: inactive

## COc1ccc([C@@]2(O)c3c(ccc4c3O[C@@](C)(CCC=C(C)C)C=C4)NC(=O)[C@@H]2OC)cc1
RAW264.7 [1]
  Activity: inactive

## COc1ccc([C@@]2(O)c3c(ccc4c3O[C@](C)(CCC=C(C)C)C=C4)NC(=O)[C@@H]2OC)cc1
RAW264.7 [1]
  Activity: inactive

## COc1ccc([C@]2(O)c3c(ccc4c3O[C@@](C)(CCC=C(C)C)C=C4)NC(=O)[C@H]2OC)cc1
RAW264.7 [1]
  Activity: inactive

## COc1ccc([C@]2(O)c3c(ccc4c3O[C@](C)(CCC=C(C)C)C=C4)NC(=O)[C@H]2OC)cc1
RAW264.7 [5]
  Activity: inactive
RAW264.7 [6]
  Activity: Active
RAW264.7 [1]
  Activity: inactive

## COc1ccc2c(c1)c(CC(=O)O)c(C)n2C(=O)c1ccc(Cl)cc1
RAW264.7 [1]
  Activity: inactive
RAW264.7 [7]
  Activity: inactive

## CO[C@@H]1C(=O)Nc2ccc3c(c2[C@@]1(O)c1ccc(Br)cc1)O[C@@](C)(CCC=C(C)C)C=C3 (racemic)
RAW264.7 [8]
  Activity: Active

## CO[C@@H]1C(=O)Nc2ccc3c(c2[C@@]1(O)c1ccc(Br)cc1)O[C@](C)(CCC=C(C)C)C=C3 (racemic)
RAW264.7 [5]
  Activity: inactive
RAW264.7 [6]
  Activity: Active
RAW264.7 [1]
  Activity: inactive

## CO[C@@H]1C(=O)Nc2ccc3c(c2[C@@]1(O)c1ccc(C(F)(F)F)cc1)O[C@@](C)(CCC=C(C)C)C=C3 (racemic)
RAW264.7 [2]
  Activity: Active
RAW264.7 [3]
  Activity: inactive
RAW264.7 [8]
  Activity: Active
RAW264.7 [5]
  Activity: inactive
RAW264.7 [6]
  Activity: Active

## CO[C@@H]1C(=O)Nc2ccc3c(c2[C@@]1(O)c1ccc(C(F)(F)F)cc1)O[C@](C)(CCC=C(C)C)C=C3 (racemic)
RAW264.7 [5]
  Activity: inactive
RAW264.7 [6]
  Activity: Active
RAW264.7 [1]
  Activity: inactive

## CO[C@@H]1C(=O)Nc2ccc3c(c2[C@@]1(O)c1ccc(C)cc1)O[C@@](C)(CCC=C(C)C)C=C3 (racemic)
RAW264.7 [1]
  Activity: inactive

## CO[C@@H]1C(=O)Nc2ccc3c(c2[C@@]1(O)c1ccc(C)cc1)O[C@](C)(CCC=C(C)C)C=C3 (racemic)
RAW264.7 [1]
  Activity: inactive

## CO[C@@H]1C(=O)Nc2ccc3c(c2[C@@]1(O)c1ccc(Cl)cc1)O[C@@](C)(CCC=C(C)C)C=C3 (racemic)
RAW264.7 [1]
  Activity: inactive

## CO[C@@H]1C(=O)Nc2ccc3c(c2[C@@]1(O)c1ccc(Cl)cc1)O[C@](C)(CCC=C(C)C)C=C3 (racemic)
RAW264.7 [1]
  Activity: inactive

## CO[C@@H]1C(=O)Nc2ccc3c(c2[C@@]1(O)c1ccc(F)cc1)O[C@@](C)(CCC=C(C)C)C=C3 (racemic)
RAW264.7 [1]
  Activity: inactive

## CO[C@@H]1C(=O)Nc2ccc3c(c2[C@@]1(O)c1ccc(F)cc1)O[C@](C)(CCC=C(C)C)C=C3 (racemic)
RAW264.7 [1]
  Activity: inactive

## CO[C@@H]1C(=O)Nc2ccc3c(c2[C@@]1(O)c1ccc([N+](=O)[O-])cc1)O[C@@](C)(CCC=C(C)C)C=C3 (racemic)
RAW264.7 [2]
  Activity: Active
RAW264.7 [3]
  Activity: inactive
RAW264.7 [4]
  Activity: Active
RAW264.7 [5]
  Activity: inactive
RAW264.7 [6]
  Activity: Active
RAW264.7 [1]
  Activity: inactive

## CO[C@@H]1C(=O)Nc2ccc3c(c2[C@@]1(O)c1ccc([N+](=O)[O-])cc1)O[C@](C)(CCC=C(C)C)C=C3 (racemic)
RAW264.7 [2]
  Activity: Active
RAW264.7 [3]
  Activity: inactive
RAW264.7 [5]
  Activity: inactive
RAW264.7 [6]
  Activity: Active
RAW264.7 [1]
  Activity: inactive

## CO[C@@H]1C(=O)Nc2ccc3c(c2[C@@]1(O)c1cccc(Br)c1)O[C@@](C)(CCC=C(C)C)C=C3 (racemic)
RAW264.7 [2]
  Activity: Active
RAW264.7 [5]
  Activity: inactive
RAW264.7 [6]
  Activity: Active
RAW264.7 [1]
  Activity: inactive

## CO[C@@H]1C(=O)Nc2ccc3c(c2[C@@]1(O)c1cccc(Br)c1)O[C@](C)(CCC=C(C)C)C=C3 (racemic)
RAW264.7 [2]
  Activity: Active
RAW264.7 [3]
  Activity: inactive
RAW264.7 [4]
  Activity: Active
RAW264.7 [5]
  Activity: inactive
RAW264.7 [6]
  Activity: Active
RAW264.7 [1]
  Activity: inactive

## COc1ccc([C@]2(O)c3c(ccc4c3O[C@@](C)(CCC=C(C)C)C=C4)N(C)C(=O)[C@H]2OC)cc1 (racemic)
RAW264.7 [5]
  Activity: inactive
RAW264.7 [6]
  Activity: Active
RAW264.7 [1]
  Activity: inactive

## COc1ccc([C@]2(O)c3c(ccc4c3O[C@@](C)(CCC=C(C)C)C=C4)N(Cc3ccc(Cl)cc3)C(=O)[C@H]2OC)cc1 (racemic)
RAW264.7 [2]
  Activity: Active
RAW264.7 [5]
  Activity: inactive
RAW264.7 [6]
  Activity: Active
RAW264.7 [1]
  Activity: inactive

## COc1ccc([C@]2(O)c3c(ccc4c3O[C@@](C)(CCC=C(C)C)C=C4)N(Cc3cccc(Br)c3)C(=O)[C@H]2OC)cc1 (racemic)
RAW264.7 [2]
  Activity: Active
RAW264.7 [5]
  Activity: inactive
RAW264.7 [6]
  Activity: Active
RAW264.7 [1]
  Activity: inactive

## COc1ccc([C@]2(O)c3c(ccc4c3O[C@@](C)(CCC=C(C)C)C=C4)N(Cc3cccc(C(F)(F)F)c3)C(=O)[C@H]2OC)cc1 (racemic)
RAW264.7 [1]
  Activity: inactive

## COc1ccc([C@]2(O)c3c(ccc4c3O[C@@](C)(CCC=C(C)C)C=C4)N(Cc3cccc(C)c3)C(=O)[C@H]2OC)cc1 (racemic)
RAW264.7 [1]
  Activity: inactive

## COc1ccc([C@]2(O)c3c(ccc4c3O[C@@](C)(CCC=C(C)C)C=C4)N(Cc3cccc(C)n3)C(=O)[C@H]2OC)cc1 (racemic)
RAW264.7 [2]
  Activity: Active
RAW264.7 [5]
  Activity: inactive
RAW264.7 [6]
  Activity: Active
RAW264.7 [1]
  Activity: inactive

## COc1ccc([C@]2(O)c3c(ccc4c3O[C@@](C)(CCC=C(C)C)C=C4)N(Cc3cccc(F)c3)C(=O)[C@H]2OC)cc1 (racemic)
RAW264.7 [5]
  Activity: inactive
RAW264.7 [6]
  Activity: Active
RAW264.7 [1]
  Activity: inactive

## COc1ccc([C@]2(O)c3c(ccc4c3O[C@@](C)(CCC=C(C)C)C=C4)N(Cc3ccccc3Cl)C(=O)[C@H]2OC)cc1 (racemic)
RAW264.7 [5]
  Activity: inactive
RAW264.7 [6]
  Activity: Active
RAW264.7 [1]
  Activity: inactive

## COc1ccc([C@]2(O)c3c(ccc4c3O[C@](C)(CCC=C(C)C)C=C4)N(C)C(=O)[C@H]2OC)cc1 (racemic)
RAW264.7 [5]
  Activity: inactive
RAW264.7 [6]
  Activity: Active
RAW264.7 [1]
  Activity: inactive

## COc1ccc([C@]2(O)c3c(ccc4c3O[C@](C)(CCC=C(C)C)C=C4)N(Cc3ccc(Cl)cc3)C(=O)[C@H]2OC)cc1 (racemic)
RAW264.7 [5]
  Activity: inactive
RAW264.7 [6]
  Activity: Active
RAW264.7 [1]
  Activity: inactive

## COc1ccc([C@]2(O)c3c(ccc4c3O[C@](C)(CCC=C(C)C)C=C4)N(Cc3cccc(Br)c3)C(=O)[C@H]2OC)cc1 (racemic)
RAW264.7 [2]
  Activity: Active
RAW264.7 [8]
  Activity: Active
RAW264.7 [5]
  Activity: inactive
RAW264.7 [6]
  Activity: Active

## COc1ccc([C@]2(O)c3c(ccc4c3O[C@](C)(CCC=C(C)C)C=C4)N(Cc3cccc(C(F)(F)F)c3)C(=O)[C@H]2OC)cc1 (racemic)
RAW264.7 [2]
  Activity: Active
RAW264.7 [5]
  Activity: inactive
RAW264.7 [6]
  Activity: Active
RAW264.7 [1]
  Activity: inactive

## COc1ccc([C@]2(O)c3c(ccc4c3O[C@](C)(CCC=C(C)C)C=C4)N(Cc3cccc(C)c3)C(=O)[C@H]2OC)cc1 (racemic)
RAW264.7 [1]
  Activity: inactive

## COc1ccc([C@]2(O)c3c(ccc4c3O[C@](C)(CCC=C(C)C)C=C4)N(Cc3cccc(C)n3)C(=O)[C@H]2OC)cc1 (racemic)
RAW264.7 [1]
  Activity: inactive

## COc1ccc([C@]2(O)c3c(ccc4c3O[C@](C)(CCC=C(C)C)C=C4)N(Cc3cccc(F)c3)C(=O)[C@H]2OC)cc1 (racemic)
RAW264.7 [2]
  Activity: Active
RAW264.7 [5]
  Activity: inactive
RAW264.7 [6]
  Activity: Active
RAW264.7 [1]
  Activity: inactive

## COc1ccc([C@]2(O)c3c(ccc4c3O[C@](C)(CCC=C(C)C)C=C4)N(Cc3ccccc3Cl)C(=O)[C@H]2OC)cc1 (racemic)
RAW264.7 [1]
  Activity: inactive

## COc1cccc([C@]2(O)c3c(ccc4c3O[C@@](C)(CCC=C(C)C)C=C4)NC(=O)[C@H]2OC)c1 (racemic)
RAW264.7 [5]
  Activity: inactive
RAW264.7 [6]
  Activity: Active
RAW264.7 [1]
  Activity: inactive

## COc1cccc([C@]2(O)c3c(ccc4c3O[C@](C)(CCC=C(C)C)C=C4)NC(=O)[C@H]2OC)c1 (racemic)
RAW264.7 [5]
  Activity: inactive
RAW264.7 [6]
  Activity: Active
RAW264.7 [1]
  Activity: inactive

## CO[C@@H]1C(=O)Nc2ccccc2[C@@]1(O)c1ccccc1 (relative stereo)
RAW264.7 [9]
  Activity: Active
RAW264.7 [10]
  Activity: Active
RAW264.7 [11]
  Activity: inactive
RAW264.7 [12]
  Activity: Active

## COc1cccc2c1[C@@](O)(c1ccccc1)[C@H](OC)C(=O)N2 (relative stereo)
RAW264.7 [9]
  Activity: Active
RAW264.7 [10]
  Activity: Active
RAW264.7 [11]
  Activity: Active
RAW264.7 [12]
  Activity: Active
